Data set [1] relates to main crop (wheat, corn, rice, soybean, cotton, oilseed, millet and sorghum). Kind of data set: Post-emergence test experiment, main crops (Table 2). Type of data set: in vivo. Also on record: key: Level 10: completely dead; Level 9: above 90% growth inhibition rate; Level 8: above 80% growth inhibition rate; Level 7: above 70% growth inhibition rate; Level 6: above 60% growth inhibition rate; Level 5: above 50% growth inhibition rate; Level 4: above 30% growth inhibition rate; Level 3: above 20% growth inhibition rate; Level 2: above 10% growth inhibition rate; Level 1: above 1-10% growth inhibition rate; Level 0: no effect. The conditions noted are these: 3 weeks after spraying, greenhouse. Here is the method:
(§1) Post-emergence test experiment: Monocotyledonous and dicotyledonous weed seeds and main crop seeds (i.e. wheat, corn, rice, soybean, cotton, oilseed, millet and sorghum.) were put into a plastic pot loaded with soil. Then covered with 0.5-2 cm soil, the seeds were allowed to grow in good greenhouse environment. The test plants were treated at 2-3 leaf stage 2-3 weeks after sowing. The test compounds of the invention were dissolved with acetone respectively, then added with 80 tween and diluted by certain amount of water to certain concentration. The solution was sprayed to the plants with a sprayer. Then the plants were cultured for 3 weeks in the greenhouse.

In data set [2] the test system is Monocotyledonous and dicotyledonous weed. Briefly: Post-emergence test experiment, weed control effect (Table 2). Type of data set: in vivo. Also noted: key to weed control effect, Setaria viridis (level) / weed control effect, Rorippa indica (level) / weed control effect, Abutilon theophrasti (level) / weed control effect, Echinochloa crus-galli (level) / weed control effect, Digitaria sanguinalis (level): Level 10: completely dead; Level 9: above 90% growth inhibition rate; Level 8: above 80% growth inhibition rate; Level 7: above 70% growth inhibition rate; Level 6: above 60% growth inhibition rate; Level 5: above 50% growth inhibition rate; Level 4: above 30% growth inhibition rate; Level 3: above 20% growth inhibition rate; Level 2: above 10% growth inhibition rate; Level 1: above 1-10% growth inhibition rate; Level 0: no effect. To be noted: 3 weeks after spraying, greenhouse. Here is the method:
as §1

Regarding `Cc1nn(C)cc1C(=O)Oc1c(C(=O)c2ccc(S(C)(=O)=O)c(Cn3cccn3)c2Cl)c(C)nn1C` [Compound 01], in data set [1] (60 g/ha), the “effect on crop, corn (level)” value is 1 (Level 1: above 1-10% growth inhibition rate); the “effect on crop, rice (level)” value is reported as 1 (Level 1: above 1-10% growth inhibition rate); the “effect on crop, wheat (level)” value is on record as 1 (Level 1: above 1-10% growth inhibition rate). For the same compound, in data set [2] (60 g/ha), the “weed control effect, Abutilon theophrasti (level)” value worked out at 10; the “weed control effect, Bidens pilosa (level)” value is listed as 8 (Level 8: above 80% growth inhibition rate); the “weed control effect, Digitaria sanguinalis (level)” value is recorded as 10; the “weed control effect, Echinochloa crus-galli (level)” value amounted to 10. Besides, in data set [2] (60 g/ha), the “weed control effect, Rorippa indica (level)” value is given as 10 and the “weed control effect, Setaria viridis (level)” value is listed as 10.

Consider `Cc1cc(C)n(Cc2c(S(C)(=O)=O)ccc(C(=O)c3c(C)nn(C)c3OC(=O)c3cn(C)nc3C)c2Cl)n1` [Compound 03], for which, in data set [1] (120 g/ha), the “effect on crop, corn (level)” value turned out to be 0; the “effect on crop, rice (level)” value was 0; the “effect on crop, wheat (level)” value is 0. Also, in data set [2] (120 g/ha), the “weed control effect, Abutilon theophrasti (level)” value was 4 (Level 4: above 30% growth inhibition rate); the “weed control effect, Bidens pilosa (level)” value is 6 (Level 6: above 60% growth inhibition rate); the “weed control effect, Digitaria sanguinalis (level)” value is listed as 0; the “weed control effect, Echinochloa crus-galli (level)” value turned out to be 10. Moreover, in data set [2] (120 g/ha), the “weed control effect, Rorippa indica (level)” value was 0 and the “weed control effect, Setaria viridis (level)” value is recorded as 6 (Level 6: above 60% growth inhibition rate).

Turning to `Cc1cnn(Cc2c(S(C)(=O)=O)ccc(C(=O)c3c(C)nn(C)c3OC(=O)c3cn(C)nc3C)c2Cl)c1` [Compound 04], in data set [1] (120 g/ha), the “effect on crop, corn (level)” value is reported as 0; the “effect on crop, rice (level)” value amounted to 0; the “effect on crop, wheat (level)” value came out at 0. In data set [2] (120 g/ha), the “weed control effect, Abutilon theophrasti (level)” value was 6 (Level 6: above 60% growth inhibition rate); the “weed control effect, Bidens pilosa (level)” value was 6 (Level 6: above 60% growth inhibition rate); the “weed control effect, Digitaria sanguinalis (level)” value is given as 1 (Level 1: above 1-10% growth inhibition rate); the “weed control effect, Echinochloa crus-galli (level)” value is 10. Further, in data set [2] (120 g/ha), the “weed control effect, Rorippa indica (level)” value was 4 (Level 4: above 30% growth inhibition rate) and the “weed control effect, Setaria viridis (level)” value is given as 5 (Level 5: above 50% growth inhibition rate).

As for `Cc1nn(C)cc1C(=O)Oc1c(C(=O)c2ccc(S(C)(=O)=O)c(Cn3cc(Cl)cn3)c2Cl)c(C)nn1C` [Compound 05], in data set [1] (120 g/ha), the “effect on crop, corn (level)” value was 0; the “effect on crop, rice (level)” value was 1 (Level 1: above 1-10% growth inhibition rate); the “effect on crop, wheat (level)” value turned out to be 0. Further, in data set [2] (120 g/ha), the “weed control effect, Abutilon theophrasti (level)” value is 9 (Level 9: above 90% growth inhibition rate); the “weed control effect, Bidens pilosa (level)” value was 8 (Level 8: above 80% growth inhibition rate); the “weed control effect, Digitaria sanguinalis (level)” value is on record as 9 (Level 9: above 90% growth inhibition rate); the “weed control effect, Echinochloa crus-galli (level)” value was determined as 10. In addition, in data set [2] (120 g/ha), the “weed control effect, Rorippa indica (level)” value is 10 and the “weed control effect, Setaria viridis (level)” value was 5 (Level 5: above 50% growth inhibition rate).

For `Cc1cnn(Cc2c(S(C)(=O)=O)ccc(C(=O)c3cnn(C)c3OC(=O)c3cn(C)nc3C)c2Cl)c1` [Compound 07], in data set [1] (120 g/ha), the “effect on crop, corn (level)” value is recorded as 0; the “effect on crop, rice (level)” value is 0; the “effect on crop, wheat (level)” value is reported as 0. Besides, in data set [2] (120 g/ha), the “weed control effect, Abutilon theophrasti (level)” value is 6 (Level 6: above 60% growth inhibition rate); the “weed control effect, Bidens pilosa (level)” value is reported as 6 (Level 6: above 60% growth inhibition rate); the “weed control effect, Digitaria sanguinalis (level)” value is 1 (Level 1: above 1-10% growth inhibition rate); the “weed control effect, Echinochloa crus-galli (level)” value was determined as 10. Besides, in data set [2] (120 g/ha), the “weed control effect, Rorippa indica (level)” value was 4 (Level 4: above 30% growth inhibition rate) and the “weed control effect, Setaria viridis (level)” value was 5 (Level 5: above 50% growth inhibition rate).
